Measured values from patent US20250057930A1, “ANAPLASTIC LYMPHOMA KINASE (ALK) CANCER VACCINES AND METHODS OF USE THEREOF” (The Children's Medical Center Corporation, priority 2022, published 2025).
Ends that are not written are not given here.

What was measured:
Type in all cases: in vivo, mouse
[1] = tested on: Ad-EA mice (mEml4-Alk rearranged lung tumor); experiment: Lung tumor volume by MRI and survival in Ad-EA mice; conditions: crizotinib 40 mg/kg or lorlatinib 2 mg/kg, MRI
From the text: EML4-ALK transgenic (Tg) mice, which express the human EML4-ALK (E13;A20, human variant 1) driven by the SP-C promoter (henceforth referred as hEML4-ALK Tg mice), and BALB/c mice infected intratracheally with adenovirus carrying the CRISPR/Cas9 system to induce in vivo the Eml4-Alk rearrangement (E14;A20, mouse variant 1) (henceforth referred as Ad-EA mice). […] In these models, magnetic resonance imaging (MRI) (FIG. 1B) allowed precise cohort stratification and tumor follow-up.
Anatomical T2-weighted coronal images were acquired with a respiratory-triggered multislice fast spin echo RARE sequence (TR=4 s, TE=4.5 ms, Rare Factor (RF)=16, FOV=30 mm^2, Matrix=256×256, slices=16-20, slice thickness=1 mm, 2 averages, providing an in-plane spatial resolution of 117 μm) with a 7T MRI (Bruker Advance III, Ettlingen, Germany) scanner equipped with a quadrature 1H coil. Animals were anesthetized by intraperitoneal injection of a combination of ROMPUN® (Bayer, 5 mg/kg) and ZOLETIL 100® (Laboratoires Virbac, 20 mg/kg); breathing was monitored during acquisition of the MR images with a respiratory sensor (SA Instruments, Inc.). Tumor volumes and numbers of masses calculations were performed by manual segmentation (slice by slice contouring) with ITK-SNAP software (www.itksnap.org).
Syngeneic mice models transplanted with tumor cells were treated intraperitoneally with 200 μg of anti-PD-1 and/or anti-CTLA-4 (clone 9D9, Bioxcell), on days 3, 6, and 9 post-tumor transplantation (3 injections/per mouse).

[2] = Toxicity of the ALK vaccine in HLA-A*02:01 and HLA-B*07:02 transgenic mice; conditions: for toxicity in vaccinated mice: HLA-A*02:01 (AMLDLLHVA) and HLA-B*07:02 (IVRCIGVSL) transgenic mice, CDN adjuvant; for CD8^+ T cells in the hypothalamus region / H&E and pan-HLA immunohistochemistry staining of the hypothalamus region / weight gain: mouse, in vivo
From the text: Transgenic mice (HLA-A*02:01 and HLA-1B*07:02) were vaccinated as shown in the schematic in FIG. 18A with either […] (SEQ ID NO: 7) or […] (SEQ ID NO: 4) peptides, respectively, and cyclic dinucleotides (CDN) adjuvant. Weight measurements were taken at discrete time points. Next, splenocytes were isolated and assayed and brain tissue was sectioned and imaged (FIG. 18C).

[3] = tested on: ALK-specific CD8+ T cells; experiment: Vaccination of HLA B*07:02 transgenic mice, IFN-γ ELISPOT of splenocytes; conditions: short and long peptide groups pooled, of 12 mice
From the text: Transgenic mice expressing the human HLA B*07:02 were vaccinated with different peptides containing the core epitopes […] (SEQ ID NO: 4) or […] (SEQ ID NO: 3): […] (SEQ ID NO: 4) (IVRshort), […] (SEQ ID NO: 1) (IVRlong), […] (SEQ ID NO: 3) (RPRshort), […] (SEQ ID NO: 2) (RPRlong). ALK-specific CD8+ T cells responses were detected in 12/12 (100%) mice vaccinated with either the IVRshort peptide or the IVRlong peptide and in 6/12 (50%) of mice vaccinated with either the PRPshort peptide or the RPRlong (FIG. 7D). Finally, ALK-specific CD8+ T cells responses were also detected in peripheral blood mononuclear cells (PBMCs) from 3/6 (50%) ALK+ NSCLC patients when stimulated with the […] (SEQ ID NO: 4) peptide but not with the […] (SEQ ID NO: 3) peptide (FIGS. 7E and 16B; Tables 6-7). Overall, four immunogenic ALK peptides in the context of the HLA A*02:01 and B*07:02 alleles were identified by mass spectrometry that can pave the way toward the design of a human ALK vaccine.
The interferon-γ release enzyme-linked immune absorbent spot (ELISPOT) assay was performed using a commercial kit (Mouse IFN-γ ELISPOT, Mabtech, Stockholm, Sweden) according to the manufacturer's instructions. Briefly, the ELISPOT plate was prepared in sterile conditions and washed with sterile PBS (200 μL/well) for 5 times. Consecutively, the plate was conditioned with fresh DMEM medium (200 μL/well) contained 10% of the same fetal bovine serum used for the splenocytes suspension and incubated for 30 minutes at room temperature. After incubation, the medium was discarded and 2.5×10^5 splenocytes were plated in each well together with the appropriate stimuli. The plate was incubated over/night at 37° C. in humidified conditions with 5% C02. The day after, cells were discarded, and the plate was washed 5 times with PBS. Biotinylated detection anti-IFN-γ mAb (1 μg/mL) was added into the wells, followed by 2 hours of incubation at room temperature. […] All plates were evaluated by a computer assisted ELISPOT reader (CTL Immunospot analyzer, OH, USA).

Compound | tumor response at the end of treatment [1] | toxicity in vaccinated mice [2] | CD8^+ T cells in the hypothalamus region [2] | H&E and pan-HLA immunohistochemistry staining of the hypothalamus region [2] | weight gain [2] | mice with ALK-specific CD8+ T cells responses detected [3] [%]
C[C@@H](Oc1cc(-c2cnn(C3CCNCC3)c2)cnc1N)c1c(Cl)ccc(F)c1Cl [crizotinib] | stabilized tumors |  |  |  |  | 
AMLDLLHVA |  | no detectable toxicity | Not a significant amount | healthy tissue | the same as the control mice | 
FNHQNIVRCIGVSL [IVRlong] |  |  |  |  |  | 100
GGDLKSFLRETRPRPSQPSSLAM [RPRlong] |  |  |  |  |  | 50
IVRCIGVSL |  | no detectable toxicity | Not a significant amount | healthy tissue | the same as the control mice | 
